Measured values published in US20230091047A1 (priority 2019, published 2023).

Key:
[1] = test system: HBV (HepG2.117 cell line, inducibly HBV producing); experiment: Anti-HBV activity: intracellular HBV DNA by real-time PCR in HepG2.117 cells after 3 days of treatment; format: cell-based, hepatitis B virus; settings: Hepatitis B virus, HepG2.117, 72 h, HepG2.117 cells, 3 days of treatment, intracellular HBV DNA by real-time PCR; mean value; read-out: EC50 (μM, mean value)
Procedure, shortened: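 Readout is intracellular HBV DNA, measured by real-time PCR with HBV-specific primers and probe after 3 days of exposure to serial compound dilutions. Cells are the stable HepG2.117 line, where HBV replication is induced in the absence of doxycycline.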

in vitro = format: cell-based; settings: human, HepG2 or HepG2.117 cells, 3-days incubation (unmarked values), ATPlite; mean value
Procedure, shortened: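 Luminescent ATP quantitation served as the viability endpoint following a 3- or 4-day incubation with test compounds.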

| SMILES | EC50 [1] [µM] | CC50 at 3 days (in vitro) [µM] |
| --- | --- | --- |
| COc1ccc(CNc2nc3c(c(=O)[nH]2)CCN(C(=O)c2ccc(Cl)c(Cl)c2)C3)cc1 [Compound C34, 7-(3,4-dichlorobenzoyl)-2-{[(4-methoxyphenyl)methyl]amino}-5,6,7,8-tetrahydropyrido[3,4-d]pyrimidin-4(3H)-one] | 4.03 | 26.6 |
| COc1ccccc1-n1c(N[C@@H](C)c2ccccc2)nc2c(c1=O)CCN(C(=O)c1ccc(Cl)c(Cl)c1)C2 [Compound C35, 7-(3,4-dichlorobenzoyl)-3-(2-methoxyphenyl)-2-{[(1S)-1-phenylethyl]amino}-5,6,7,8-tetrahydropyrido[3,4-d]pyrimidin-4(3H)-one] | 1.41 | 33.2 |
| COc1ccc(CNc2nc3c(c(=O)n2-c2ccccc2OC)CC(C)N(C(=O)c2ccc(Cl)c(Cl)c2)C3)cc1 (stereo not drawn) [Compound C36, 7-(3,4-dichlorobenzoyl)-3-(2-methoxyphenyl)-2-{[(4-methoxyphenyl)methyl]amino}-6-methyl-5,6,7,8-tetrahydropyrido[3,4-d]pyrimidin-4(3H)-one] | 1.26 | > 50 |
| COc1ccccc1-n1c(NCCO)nc2c(c1=O)CCN(C(=O)c1ccc(Cl)c(Cl)c1)C2 [Compound C37, 7-(3,4-dichlorobenzoyl)-2-[(2-hydroxyethyl)amino]-3-(2-methoxyphenyl)-5,6,7,8-tetrahydropyrido[3,4-d]pyrimidin-4(3H)-one] | 32.1 | > 50 |
| CCNc1nc2c(c(=O)n1-c1ccccc1OC)CCN(C(=O)c1ccc(Cl)c(Cl)c1)C2 [Compound C38, 7-(3,4-dichlorobenzoyl)-2-(ethylamino)-3-(2-methoxyphenyl)-5,6,7,8-tetrahydropyrido[3,4-d]pyrimidin-4(3H)-one] | 6.87 | > 50 |
| COc1ccccc1-n1c(N2CCCC2)nc2c(c1=O)CCN(C(=O)c1ccc(Cl)c(Cl)c1)C2 [Compound C39, 7-(3,4-dichlorobenzoyl)-3-(2-methoxyphenyl)-2-(pyrrolidin-1-yl)-5,6,7,8-tetrahydropyrido[3,4-d]pyrimidin-4(3H)-one] | 9.21 | > 50 |
| COc1ccccc1-n1c(N2CCOCC2)nc2c(c1=O)CCN(C(=O)c1ccc(Cl)c(Cl)c1)C2 [Compound C40, 7-(3,4-dichlorobenzoyl)-3-(2-methoxyphenyl)-2-(morpholin-4-yl)-5,6,7,8-tetrahydropyrido[3,4-d]pyrimidin-4(3H)-one] | 11 | > 50 |
| COc1ccc(CNc2nc3c(c(=O)n2Cc2ccccc2)CCN(C(=O)c2ccc(Cl)c(Cl)c2)C3)cc1 [Compound C41, 3-benzyl-7-(3,4-dichlorobenzoyl)-2-{[(4-methoxyphenyl)methyl]amino}-5,6,7,8-tetrahydropyrido[3,4-d]pyrimidin-4(3H)-one] | 8.7 | > 50 |
| CC(C)Nc1nc2c(c(=O)[nH]1)CCN(C(=O)c1ccc(Cl)c(Cl)c1)C2 [Compound C42, 7-(3,4-dichlorobenzoyl)-2-[(propan-2-yl)amino]-5,6,7,8-tetrahydropyrido[3,4-d]pyrimidin-4(3H)-one] | 2.79 | > 50 |
| COc1ccc(CN(C)c2nc3c(c(=O)n2-c2ccccc2OC)CCN(C(=O)c2ccc(Cl)c(Cl)c2)C3)cc1 [Compound C43, 7-(3,4-dichlorobenzoyl)-3-(2-methoxyphenyl)-2-{[(4-methoxyphenyl)methyl](methyl)amino}-5,6,7,8-tetrahydropyrido[3,4-d]pyrimidin-4(3H)-one] | 5.64 | > 50 |
| COc1ccccc1-n1c(N[C@H](C)c2ccccc2)nc2c(c1=O)CCN(C(=O)c1ccc(Cl)c(Cl)c1)C2 [Compound C44, 7-(3,4-dichlorobenzoyl)-3-(2-methoxyphenyl)-2-{[(1R)-1-phenylethyl]amino}-5,6,7,8-tetrahydropyrido[3,4-d]pyrimidin-4(3H)-one] | 6.99 | 25.3 |
| COc1ccccc1-n1c(NC2CCCC2)nc2c(c1=O)CCN(C(=O)c1ccc(Cl)c(Cl)c1)C2 [Compound C45, 2-(cyclopentylamino)-7-(3,4-dichlorobenzoyl)-3-(2-methoxyphenyl)-5,6,7,8-tetrahydropyrido[3,4-d]pyrimidin-4(3H)-one] | 6.62 | 27.2 |
| COc1ccccc1-n1c(N(C)C)nc2c(c1=O)CCN(C(=O)c1ccc(Cl)c(Cl)c1)C2 [Compound C46, 7-(3,4-dichlorobenzoyl)-2-(dimethylamino)-3-(2-methoxyphenyl)-5,6,7,8-tetrahydropyrido[3,4-d]pyrimidin-4(3H)-one] | 6.49 | > 50 |
| COc1ccccc1-n1c(NC(C)C2CC2)nc2c(c1=O)CCN(C(=O)c1ccc(Cl)c(Cl)c1)C2 (stereo not drawn) [Compound C47, 2-[(1-cyclopropylethyl)amino]-7-(3,4-dichlorobenzoyl)-3-(2-methoxyphenyl)-5,6,7,8-tetrahydropyrido[3,4-d]pyrimidin-4(3H)-one] | 2.68 | 27.3 |
| COc1ccccc1-n1c(NC2COC2)nc2c(c1=O)CCN(C(=O)c1ccc(Cl)c(Cl)c1)C2 [Compound C48, 7-(3,4-dichlorobenzoyl)-3-(2-methoxyphenyl)-2-[(oxetan-3-yl)amino]-5,6,7,8-tetrahydropyrido[3,4-d]pyrimidin-4(3H)-one] | 30.1 | > 50 |
| CCC(C)Nc1nc2c(c(=O)n1-c1ccccc1OC)CCN(C(=O)c1ccc(Cl)c(Cl)c1)C2 (stereo not drawn) [Compound C49, 2-[(butan-2-yl)amino]-7-(3,4-dichlorobenzoyl)-3-(2-methoxyphenyl)-5,6,7,8-tetrahydropyrido[3,4-d]pyrimidin-4(3H)-one] | 2.41 | 26.8 |
| COc1ccccc1-n1c(NCC2CC2)nc2c(c1=O)CCN(C(=O)c1ccc(Cl)c(Cl)c1)C2 [Compound C50, 2-[(cyclopropylmethyl)amino]-7-(3,4-dichlorobenzoyl)-3-(2-methoxyphenyl)-5,6,7,8-tetrahydropyrido[3,4-d]pyrimidin-4(3H)-one] | 5.85 | 26.7 |
| COCCn1c(NCc2ccc(OC)cc2)nc2c(c1=O)CCN(C(=O)c1ccc(Cl)c(Cl)c1)C2 [Compound C51, 7-(3,4-dichlorobenzoyl)-3-(2-methoxyethyl)-2-{[(4-methoxyphenyl)methyl]amino}-5,6,7,8-tetrahydropyrido[3,4-d]pyrimidin-4(3H)-one] | 4.35 | 36.6 |
| COc1ccc(CNc2nc3c(c(=O)n2C)CCN(C(=O)c2ccc(Cl)c(Cl)c2)C3)cc1 [Compound C52, 7-(3,4-dichlorobenzoyl)-2-{[(4-methoxyphenyl)methyl]amino}-3-methyl-5,6,7,8-tetrahydropyrido[3,4-d]pyrimidin-4(3H)-one] | 5.1 | > 50 |
| COc1ccccc1-n1c(NC(C)(C)C)nc2c(c1=O)CCN(C(=O)c1ccc(Cl)c(Cl)c1)C2 [Compound C53, 2-(tert-butylamino)-7-(3,4-dichlorobenzoyl)-3-(2-methoxyphenyl)-5,6,7,8-tetrahydropyrido[3,4-d]pyrimidin-4(3H)-one] | 2.05 | 31.6 |
| COc1ccccc1-n1c(OC)nc2c(c1=O)CCN(C(=O)c1ccc(Cl)c(Cl)c1)C2 [Compound C54, 7-(3,4-dichlorobenzoyl)-2-methoxy-3-(2-methoxyphenyl)-5,6,7,8-tetrahydropyrido[3,4-d]pyrimidin-4(3H)-one] | 4.59 | 29.7 |
| COc1ccccc1-n1c(NC2CCc3ccccc32)nc2c(c1=O)CCN(C(=O)c1ccc(Cl)c(Cl)c1)C2 (stereo not drawn) [Compound C55, 7-(3,4-dichlorobenzoyl)-2-[(2,3-dihydro-1H-inden-1-yl)amino]-3-(2-methoxyphenyl)-5,6,7,8-tetrahydropyrido[3,4-d]pyrimidin-4(3H)-one] | 22.1 | 23.6 |
| COc1ccccc1-n1c(NC(C)c2ccncc2)nc2c(c1=O)CCN(C(=O)c1ccc(Cl)c(Cl)c1)C2 (stereo not drawn) [Compound C56, 7-(3,4-dichlorobenzoyl)-3-(2-methoxyphenyl)-2-{[1-(pyridin-4-yl)ethyl]amino}-5,6,7,8-tetrahydropyrido[3,4-d]pyrimidin-4(3H)-one] | 1.93 | > 50 |
| COc1ccccc1-n1c(N)nc2c(c1=O)CCN(C(=O)c1ccc(Cl)c(Cl)c1)C2 [Compound C57, 2-amino-7-(3,4-dichlorobenzoyl)-3-(2-methoxyphenyl)-5,6,7,8-tetrahydropyrido[3,4-d]pyrimidin-4(3H)-one] | 0.91 | > 50 |
| COc1ccc(CNc2nc3c(c(=O)n2C2COC2)CCN(C(=O)c2ccc(Cl)c(Cl)c2)C3)cc1 [Compound C58, 7-(3,4-dichlorobenzoyl)-2-{[(4-methoxyphenyl)methyl]amino}-3-(oxetan-3-yl)-5,6,7,8-tetrahydropyrido[3,4-d]pyrimidin-4(3H)-one] | 2.56 | 42.8 |
| COc1ccc(CNc2nc3c(c(=O)n2CC2CC2)CCN(C(=O)c2ccc(Cl)c(Cl)c2)C3)cc1 [Compound C59, 3-(cyclopropylmethyl)-7-(3,4-dichlorobenzoyl)-2-{[(4-methoxyphenyl)methyl]amino}-5,6,7,8-tetrahydropyrido[3,4-d]pyrimidin-4(3H)-one] | 2.53 | > 50 |
| COc1ccc(CNc2nc3c(c(=O)[nH]2)CCN(C(=O)c2ccc(Cl)c(C)c2)C3)cc1 [Compound C60, 7-(4-chloro-3-methylbenzoyl)-2-{[(4-methoxyphenyl)methyl]amino}-5,6,7,8-tetrahydropyrido[3,4-d]pyrimidin-4(3H)-one] | 3.25 | 23.8 |
